Measurements from patent publication US20070134391A1, “High-Potency Sweetener Composition for Treatment and/or Prevention of Autoimmune Disorders and Compositions Sweetened Therewith” (THE COCA-COLA COMPANY, priority 2005, published 2007).

Tests used:
[1] = Rate of dissolution of rebaudioside A polymorph and amorphous forms in H2O; assay type: physicochemical
[2] = test system: panel of experts in the sensory evaluation of foods and beverages; assay: Sensory evaluation of sweetness linger and sugar-like taste by expert panel; assay type: in vivo; conditions: scale 0=no sweetness linger to 5=high sweetness linger
Experimental: Sensory evaluation of the samples prepared in Example Set G was carried out under the following protocol, similar to that described hereinabove. In this test protocol, none of the samples were swallowed. All samples were expectorated and the mouth was rinsed with water after the tasting. Immediately upon sensing maximal sweetness, the sample was expectorated, the mouth was rinsed with water and the rate of sweetness decay (“Sweetness Linger”) was measured, where attention was focused on the sweetness 3-4 min after the water rinse. After sample tasting was complete, a salty oyster cracker was chewed followed by a water rinse, and at least 5 minutes followed before tasting the next sample. The sweetness linger was rated by a panel of experts in the sensory evaluation of foods and beverages using the following scale: 0=no sweetness linger, 1=very slight sweetness linger, 2=slight sweetness linger, 3=moderate sweetness linger, 4=moderately high sweetness linger, 5=high sweetness linger.
The “Sweetness Linger” rating for sucrose observed by this protocol is defined as 0. The Sweetness Linger of a 500 ppm of REBA control sample is defined as 5. Experimental samples were tasted by the same protocol, always allowing sufficient time between samples to ensure re-equilibration of the sensory system. Re-tasting of control samples during the course of the experiment was allowed and encouraged.
The comparison taste test was performed between two controls and addition of sweet taste improving additive on the onset and/or sweetness linger.
Sweet taste improving compositions were combined with a REBA solution to determine their effect on sweetness linger. Screening of the initial sample, or further dilutions, allowed identification of concentrations which were just above-threshold, herein defined as “near-threshold concentrations.” The near-threshold additive concentrations, a 6- to 100-fold higher higher additive concentration (depending on the off-taste intensity), and a mid-level additive concentration (halfway between the near-threshold and higher additive concentration) were evaluated to determine the effect on sweetness linger of a REBA solution.
Formulations of a 500 ppm EBA in a phosphoric acid solution (75%) at a pH of 2.5 with phosphoric acid or a pH of 3.1 with citric acid and potassium citrate were prepared prior to the addition of the additives at the three levels of concentration.
Sensory evaluation using the protocol described in Example Set G then was used to evaluate the sweetness linger of the REBA solutions.

[3] = Example Set G: citric acid/potassium citrate composition equivalent to diet lemon-lime beverage, 3-4 min after water rinse
[4] = Example Set H: carbon-treated water with phosphoric acid (75%) to pH 2.4-2.5

Rate of dissolution in H2O at 25° C. [1] | Molecule | sweetness linger [2, 3] | sweetness linger [2, 4]
Very low (<0.2%/ %/60 minutes | rebaudioside A [Form 1] | – | –
– | OC[C@H]1O[C@@](CO)(O[C@H]2O[C@H](CO)[C@@H](O)[C@H](O)[C@H]2O)[C@@H](O)[C@@H]1O [sugar, sucrose] | 0 | 0
– | rebaudioside A | 5 | 5
